In test [1] the test system is TNF-α content in conditioned media of LPS-treated BV2 microglial cells. The experiment in a line: In vitro TNF-α inhibitory activity in LPS-treated BV2 microglial cells. As to conditions: compound 45 min before LPS, 24 h incubation, TNF-α in supernatant, read-out: IC50 for reducing LPS-induced TNF-α content by half. In kind it is cell-based. On the procedure:
To measure the efficacy of the biological activity of Compound 1, an in vitro assay was employed to measure TNF-α content in conditioned media of cells treated with lipopolysaccharide (LPS) and different concentrations of Compound 1. 1 mg of Compound 1 peptide compound was added to 3.333 mL of physiological saline to make a 189 μM peptide solution which is sterilized by filtration through a 0.22 μm membrane filter. For treatment of cells, threefold serial dilutions were made, yielding concentrations of 189, 63, 21, 7, 2.3, and 0.76 μM peptide solution.
BV2 cells were recovered and passaged more than 3 times. 1.2×10^6 BV2 microglial cells in good growth state and in the logarithmic growth phase were diluted to […] cells/mL with DMEM medium containing 10% FBS, and 400 μL of cell suspension was inoculated into each well of a 48-well cell culture plate. […]

For test [2], the system named is TNF-α content in the blood of LPS-treated ICR mice. The experiment in a line: In vivo TNF-α inhibitory activity in LPS-treated mice. As to conditions: ICR male mice, IV compound 30 min before IV LPS 5 μg/kg, blood collected 1.5 hours after LPS. On the procedure: To measure the efficacy of the biological activity of Compound 1, an in vivo assay was employed to measure TNF-α content in the blood of whole mice treated with lipopolysaccharide (LPS) and different concentrations of Compound 1. 56 ICR male mice, 12-14 g, were acclimated to the animal facility for 7 days and were then randomized into 8 groups with 7 mice/group to receive doses of 0, 0.001, 0.003, 0.01, 0.03, 0.1, 0.3, and 1.0 mg/kg of compound. Each dose group received intravenous (IV) injection of different concentrations of Compound 1 peptide solution at a dosing volume of 10 mL/kg. 30 min later, IV LPS at a dose of 5 μg/kg and at a volume of 10 ml/kg was administered. 1.5 hours after administration of LPS, whole blood was collected from the orbit of ICR mice, centrifuged at 4000 rpm for 10 min, and the supernatant was collected and used for TNF-α content detection from each of the different Compound 1 doses. (TNF-α detection kit, Unitech biological item number: 70-EK282/3-96).

The results in this text go back to US20230210939A1, “CYCLIC PEPTIDE COMPOUNDS AND METHODS OF USE” (priority 2020, published 2023).

The structures appear in SMILES notation. pIC50: −log10 of the molar value. Positions of bridges follow the written chain, without caps; N, C: chain ends. Non-standard residues stand in square brackets, D forms with d. Residues, ends and D or L forms follow the SMILES beside them. *: point of attachment. Picolinoyl = O=C(c1ccccn1)*; Aib = CC(C)(N)C(=O)O

For orientation: pIC50 means the IC50 on a negative log10 scale, so that one unit is a factor of ten. `CC(C)CC1NC(=O)C(CC(C)C)NC(=O)C(CCCNC(=N)N)NC(=O)C(CCCCN)NC(=O)C(C)(C)NC(=O)C(CC(C)C)NC(=O)C(CCCCN)NC(=O)C(CCCNC(=N)N)NC(=O)C(CC(C)C)NC(=O)C(NC(=O)C(CO)NC(=O)C(C)NC(=O)c2ccccn2)CSSCC(C(N)=O)NC1=O` (stereo not drawn) [Compound 1, picolinyl-Ala-Ser-cyclo[Cys-LRKL-Aib-KRLL-Cys]-NH2] (Picolinoyl-ASCLRKL[Aib]KRLLC-NH2; disulfide 3-13; configuration not given here): the negative-log IC50 (pIC50) in test [1] is approximately 5.99. The “ED50 (Effective Dose at which a 50% reduction in blood TNF-α content was found)” value in test [2] is given as 0.045 mg/kg.
